Consider 1 compound from paper PMC9166630, “SAR Probing of KX2-391 Provided Analogues With Juxtaposed Activity Profile Against Major Oncogenic Kinases” (Frontiers in Oncology, 2022).

One assay concerns HL60 cells. Kind of assay: Apoptosis detection (Annexin V-FITC/PI). In kind it is cell-based, human. The note with it: HL60, 7 µM, 48 h. As for the experimental part: Integral to the cell cycle analysis of 4e, we determined the population of cells undergoing apoptosis, or programmed cell death, by Annexin V-FITC/PI double staining in HL60 cells. Two different concentrations of 4e (3.5 µM and 7 µM) were selected for treatment.
Total apoptosis was detected using Annexin V-FITC Apoptosis Detection kit (Cell Signaling Technology, Danvers, MA, USA) as per the protocol. Briefly, 1.5 x 10^5 of HL60 cells were plated in a 6-well plate with appropriate compound concentrations at 37°C for 48 h. After the incubation completed, cells were washed twice with ice-cold PBS (1X). Subsequently cells were stained with Annexin V-FITC/PI and incubated in the dark on ice for 20 min. After washing with PBS wash, the cells were analyzed by acquiring a minimum total of 5000 events using BD FACSAria III flow cytometer (BD Biosciences, USA).

The subject of another assay is Blk. The assay is described as follows: PamChip tyrosine kinase microarray, Blk. The format is biochemical, human. The note with it: 4e 0.1 µM, HL60 lysate. As for the experimental part:
(§1) The changes in kinase activities induced by treatment with 4e were monitored within the HL60 cell lines using PamGene’s (Hertogenbosch, Netherlands) PamChip® peptide microarray profiler, which quantifies the activities of 144 tyrosine kinases (YK) ([29], [30]) (Figure 7). Results are provided as a log fold change (LFC) heatmap and Mean Kinase Statistic. From the LFC it is apparent that compound 4e, at a concentration of 0.1 µM, induced sizable changes to the activity of several kinases within the cell signaling YK profile (Figure 7A).
(§2) An Upstream Kinase tool was used to generate a putative list of kinases responsible for phosphorylating the phospho-sites on the PamChip (Figure 7B) ([31]). It is an interpretation and is highly dependent on the contents of the underlying phosphorylation databases. A Kinase Score was used for ranking kinases based on their significance and specificity in terms of the set of peptides used for the corresponding kinase. Kinase Statistics indicates the overall change of the peptide set that represents the kinase. Kinase statistics value <0 indicates lower kinase activity in the compound spiked lysate and vice versa ([32], [33]). Table 5 lists the 20 most changed kinases within treated HL60 cell lysates by 0.1 μM 4e, ranked according to their Kinase Score.
(§3) The two multiple-kinase tests (PamChip and Phosphokinase Profiler) provided strong evidence of very minor involvement of Src in the cellular activities of 4e. However, the question must be raised about the effect of the 4e on other SRC family kinase (SFK). To address this point, we must highlight that both R&D phosphokinase profiler and PamChip feature Yes, Fgr, Lyn, Lck and Src while Fyn, Hck, Blk and Frk activities are tested in the PamChip only. The signals of SFKs in the R&D Phosphokinase Profiler were too weak to detect in both untreated (control) and 4e-treated HL60 cells. In PamChip assay, most of SFK’s were not ranked in the top 20 affected kinases (Table 5). In addition, their Specificity Score were very low (Table 6) indicating their marginal importance to the cell killing activities of 4e. Fgr kinase which ranked 7th in the list (Table 5) was the only SFK member that seems to be affected by the compound, albeit with low Specificity Score (1.03).
(§4) The compound 4e was spiked into HL60 cell lysate at different concentrations (0.001, 0.01, 0.1, 1, 10 and 50 μM). In addition, DMSO was also spiked in HL60 lysate at low concentration (2% v/v) as control. Samples were profiled on PamGene’s Tyrosine Kinase (PTK) arrays in technical replicates, covering a total of 196 phosphorylation sites. Frozen HL60 cultured cell pellet was sent to PamGene. […] Protein concentration was measured using standard Bradford assay as per PamGene SOPs. […]

Another assay concerns the target T1, EphA1 (Homo sapiens, UniProt P21709).
T1 construct: endogenous in cells; host or cells: HL60 lysate
T1 sequence (P21709 26-976): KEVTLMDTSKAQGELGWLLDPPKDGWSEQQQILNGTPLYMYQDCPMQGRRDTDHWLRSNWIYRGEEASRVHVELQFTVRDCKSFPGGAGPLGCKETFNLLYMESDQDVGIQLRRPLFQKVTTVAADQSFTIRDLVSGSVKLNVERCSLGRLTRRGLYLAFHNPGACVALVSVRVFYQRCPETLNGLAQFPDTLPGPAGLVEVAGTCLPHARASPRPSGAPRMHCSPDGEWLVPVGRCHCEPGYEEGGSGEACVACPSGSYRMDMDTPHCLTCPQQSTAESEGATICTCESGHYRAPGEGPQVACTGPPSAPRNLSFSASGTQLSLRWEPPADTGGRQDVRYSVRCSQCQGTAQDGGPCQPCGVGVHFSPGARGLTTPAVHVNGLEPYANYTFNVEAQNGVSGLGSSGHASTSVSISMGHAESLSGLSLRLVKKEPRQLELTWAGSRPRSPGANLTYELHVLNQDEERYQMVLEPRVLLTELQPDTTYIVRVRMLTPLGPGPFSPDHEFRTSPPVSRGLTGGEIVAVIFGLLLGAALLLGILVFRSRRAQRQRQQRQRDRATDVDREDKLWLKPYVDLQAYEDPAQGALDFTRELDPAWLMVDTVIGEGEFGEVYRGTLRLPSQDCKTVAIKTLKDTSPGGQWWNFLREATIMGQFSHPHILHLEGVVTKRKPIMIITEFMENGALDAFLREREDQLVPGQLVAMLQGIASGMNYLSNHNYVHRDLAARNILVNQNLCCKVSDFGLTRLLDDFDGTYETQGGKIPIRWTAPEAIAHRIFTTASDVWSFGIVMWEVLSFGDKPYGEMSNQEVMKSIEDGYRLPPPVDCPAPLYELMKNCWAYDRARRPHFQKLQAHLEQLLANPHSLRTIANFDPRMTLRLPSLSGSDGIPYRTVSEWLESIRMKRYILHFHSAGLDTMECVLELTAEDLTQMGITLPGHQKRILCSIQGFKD
Kind of assay: PamChip tyrosine kinase microarray, EphA1. The format is biochemical. To be noted: 4e 0.1 µM, HL60 lysate. As for the experimental part: as §1, §2
(§5) The compound 4e was spiked into HL60 cell lysate at different concentrations (0.001, 0.01, 0.1, 1, 10 and 50 μM). In addition, DMSO was also spiked in HL60 lysate at low concentration (2% v/v) as control. Samples were profiled on PamGene’s Tyrosine Kinase (PTK) arrays in technical replicates, covering a total of 196 phosphorylation sites. Frozen HL60 cultured cell pellet was sent to PamGene. At PamGene, cells were lysed using a lysis buffer and proteases inhibitors cocktail. Protein concentration was measured using standard Bradford assay as per PamGene SOPs. These lysates were further used for generating the PTK activity profiles. For spiking, 4e was received as powder form and dissolved in DMSO at PamGene facility followed by storing at -20°C in small aliquots. PamGene used its in-house bioinformatics toolbox in combination with other methods to generate hypotheses of signaling pathways.

For another assay, the system named is Lyn. The assay is described as follows: PamChip tyrosine kinase microarray, Lyn. In kind it is biochemical, human. The note with it: 4e 0.1 µM, HL60 lysate. As for the experimental part:
as §1, §2, §3, §4

The target in the next assay is T2, EphA2 (Homo sapiens, UniProt P29317).
T2 construct: endogenous in cells; host or cells: HL60 lysate
The assay is described as follows: PamChip tyrosine kinase microarray, EphA2. The format is biochemical. The note with it: 4e 0.1 µM, HL60 lysate. As for the experimental part:
as §1, §2, §5

A further assay deals with Lck. The assay is described as follows: PamChip tyrosine kinase microarray, Lck. The format is biochemical, human. The note with it: 4e 0.1 µM, HL60 lysate. The protocol: as §1, §2, §3, §4

T2 sequence (P29317 24-976): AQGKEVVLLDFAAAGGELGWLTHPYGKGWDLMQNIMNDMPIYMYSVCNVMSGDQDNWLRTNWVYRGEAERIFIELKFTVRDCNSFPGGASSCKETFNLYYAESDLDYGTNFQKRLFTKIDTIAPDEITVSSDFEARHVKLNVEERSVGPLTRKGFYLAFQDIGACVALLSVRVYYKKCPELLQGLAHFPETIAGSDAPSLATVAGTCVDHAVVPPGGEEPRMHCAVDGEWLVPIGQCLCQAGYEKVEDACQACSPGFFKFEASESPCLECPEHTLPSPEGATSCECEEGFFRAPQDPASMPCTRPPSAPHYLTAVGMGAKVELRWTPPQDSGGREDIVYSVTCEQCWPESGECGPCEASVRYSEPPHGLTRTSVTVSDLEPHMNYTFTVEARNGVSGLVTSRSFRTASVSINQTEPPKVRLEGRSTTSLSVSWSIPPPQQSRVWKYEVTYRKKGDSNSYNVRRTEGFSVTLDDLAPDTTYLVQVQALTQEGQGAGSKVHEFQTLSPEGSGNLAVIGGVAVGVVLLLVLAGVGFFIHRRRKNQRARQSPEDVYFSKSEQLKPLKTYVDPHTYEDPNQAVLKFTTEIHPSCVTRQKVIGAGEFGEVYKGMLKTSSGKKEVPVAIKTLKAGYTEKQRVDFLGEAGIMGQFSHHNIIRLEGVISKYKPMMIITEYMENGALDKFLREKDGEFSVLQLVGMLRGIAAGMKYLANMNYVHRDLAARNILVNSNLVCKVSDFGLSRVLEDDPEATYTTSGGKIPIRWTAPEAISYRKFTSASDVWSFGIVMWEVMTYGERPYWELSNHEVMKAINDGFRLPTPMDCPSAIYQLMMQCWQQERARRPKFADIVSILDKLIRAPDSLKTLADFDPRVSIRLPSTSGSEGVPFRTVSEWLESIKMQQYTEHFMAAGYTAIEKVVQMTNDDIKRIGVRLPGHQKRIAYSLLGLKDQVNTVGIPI

With `O=C(Cc1ccc(NC(=O)c2cccc(Cl)c2)cc1)NCc1ccccc1` [Compound 4e, N-(4-(2-(benzylamino)-2-oxoethyl)phenyl)-3-chlorobenzamide], the “percentage of apoptotic cells” value with HL60 cells is recorded as “increased significantly”. For the same compound, the “Mean Final Score” value in the assay with Blk is reported as 0.7362; on EphA1, 1.8401; in the assay with Lyn, 1.9530; at EphA2, 2.4004; in the assay with Lck, 1.2290. Also, the “Mean Kinase Statistic” value with Blk is -0.3552; on EphA1, -0.6954; in the assay with Lyn, -0.5775; at EphA2 it was -0.7066; in the assay with Lck, -0.5054. Further, the “Mean Significance Score” value in the assay on Blk is reported as 0.6625; at EphA1, 1.1254; in the assay on Lyn, 1.2715; at EphA2, 1.5807; with Lck it was 0.8208. Further, the “Mean Specificity Score” value in the assay with Blk is given as 0.0736; at EphA1, 0.7147; in the assay on Lyn it was 0.6815; at EphA2, 0.8197; with Lck it was 0.4082.
